Measured values published in US12427151B2, “Compositions and method of treating cancer” (The Regents of the University of California, priority 2017, dated 2025).

Experiments:
[1] = system: GAS; experiment: Comparison of antimicrobial activity of natural and synthetic 6-HAP; format: cell-based, group A Streptococcus; settings: THB overnight, OD600
Description: GAS (1×10^5 CFU/mL) were incubated with indicated concentrations of purified 6-HAP or synthetic 6-HAP in THB overnight. Bacterial growth was monitored by measuring OD600 (relative % of growth index).
Structural analyses of antibiotic produced by S. epidermidis. High-resolution electrospray (ES)-mass spectrometry analysis of the purified antimicrobial fraction identified a molecule with a mass of 151.0487, predicting a molecular formula of C5H5N5O (calculated: 151.0489) (FIG. 3a). […] Given the chemical formula as C5H5N5O, the structure was predicted as 6-N-hydroxyaminopurine (6-HAP). To confirm this predicted structure we performed a chemical synthesis of 6-HAP. […] In addition, the fragmentation profile of natural compound by electron-impact MS (FIG. 3e) also matched that of synthetic product (FIG. 3f).

[2] = system: normal human keratinocytes (NHEK); experiment: Cell proliferation assay (BrdU incorporation); format: cell-based; settings: 24-hr incubation, until a very high dose (100 μg/mL)
Description: (a-b) Selective antiproliferative activity of 6-HAP against Pam212 squamous cell carcinoma, but not against normal keratinocytes. BrdU incorporation into Pam212 cells (b) or NHEKs (b) after 4-hr or 24-hr incubation, respectively, in suitable media containing indicated concentrations of 6-HAP or mitomycin C (10 μg/mL) (a). (c) Expression of mARC1 and mARC2 in NHEKs, squamous cell carcinoma (Pam212), melanoma (B16F10) and lymphoma cell lines (L5178). To compare relative expression level in each cells, data was shown as relative to GAPDH expression. (d) Expression of mARC1 and mARC2 in NHEKs treated with control siRNA, mARCI siRNA and mARC2 siRNA. (e) Effect of gene silencing with mARC1 and mARC2 siRNA on sensitivity to 6-HAP in NHEKs. NHEKs treated with each siRNA were incubated for 48 hrs and then incubated with 10 μg/mL of 6-HAP for 24 hrs.
Cell culture and cell proliferation assay. B16F10 mouse melanoma, Pam212, L5178 and YAC-1 mouse […] cell lines were obtained from American Type Culture Collection. […] After 4-hr (tumor cell lines) or 24-hr (NHEK) incubation with 6-HAP, proliferative activity of cells was colorimetrically determined by monitoring BrdU incorporation with Cell Proliferation kit according to the manual (Roche).

[3] = system: GAS; experiment: Subcutaneous GAS deep skin infection in mice; format: in vivo, C57BL6 mouse; settings: single intravenous injection 20 mg/kg after GAS inoculation
Description: (a-c) Effect of a single intravascular injection of 6-HAP on skin infection by GAS. The size of the infected lesion was measured by Image-J software (a). Representative images of infected skin (arrow) of mouse treated with 6-HAP or vehicle at Day-1 and Day-3 post infection are shown in (b). Infected skin was removed 24 and 72 hrs after bacterial injection and homogenized in PBS (c). CFUs were enumerated by plating serial dilutions of the homogenate on an agar plate. The data represent mean±SE of eight individual experiments (*P<0.05 and **P<0.01 by Student's t-test vs vehicle control). (d-e) Effect of repeated intravascular administrations with 6-HAP on growth of melanoma in mice. The data represent mean±SE of 10 individual experiments (*P<0.05, **P<0.01 and ***P<0.001 by Student's t-test vs vehicle control) (d). Representative images of tumor (broken line) in mouse treated with 6-HAP or vehicle at Day-9 and Day-13 are shown in (e).
For subcutaneous infection, mouse dorsal skin was subcutaneously injected with GAS (1×10^7 CFU/50 μL in PBS) by 31 G needle. […] Wound development was monitored everyday by taking photographs along with a wound ruler and lesion size was measured with ImageJ ([http://]rsbweb.nih.gov/ij/)(hyperlink disabled by brackets). […]

## ONc1ncnc2nc[nH]c12 [6-HAP, 6-N-hydroxyaminopurine]
[1]
  antimicrobial activity against GAS, synthetic versus natural product: comparable to that of natural product
[2]
  BrdU incorporation: not affected
[3]
  GAS survival in infected skin: significantly suppressed
  clinical lesion size: significantly suppressed
